Source: patent US20230364070A1, “PYRROLO[3,2-C]PYRIDIN-4-ONE DERIVATIVES USEFUL IN THE TREATMENT OF CANCER” (Scorpion Therapeutics, Inc., priority 2020, published 2023)
pIC50: −log10 of the molar value.

Columns and labels:
Type in all cases: cell-based
[1] = biological target: T1, pEGFR in Ba/F3 cells expressing EGFR exon 20 ASV Ins V769_D770 (Homo sapiens, UniProt P00533, INS769ASV); assay: Inhibitor activity on EGFR phosphorylation (pEGFR AlphaLISA, 2 h), Ba/F3 EGFR exon 20 ASV insertion; settings: Ba/F3 EGFR exon 20 ASV Ins V769_D770
T1 construct: expressed in transfected cells; host or cells: Ba/F3 (murine pro-B cells), retroviral transduction, puromycin selection, IL3-independent pool

pEGFR in CUTO14 cells = biological target: T2, pEGFR in CUTO14 cells (Homo sapiens, UniProt P00533, DUP767-769); assay: Inhibitor activity on EGFR phosphorylation (pEGFR AlphaLISA, 2 h), CUTO14 cells
T2 construct: endogenous in cells; host or cells: CUTO14 cells
Experimental: CUTO14 cells were obtained from Dr. Robert C. Doebele at the University of Colorado.
Shake 350 rpm for 1 hr in the dark • 3.4 Prepare donor mix under low light conditions prior to use. Dispense 5 μL of donor mix to all the wells. Mix well on the shaker, seal and wrap in aluminum foil and incubate 1.5 hrs at room temperature in the dark • 3.5 Transfer 18.5 μL mixture to OptiPlate 384, and read using an Envision.

[2] = biological target: T3, Ba/F3 cells with EGFR exon 20 NPG Ins D770_N771 (Homo sapiens, UniProt P00533, INS770NPG); assay: EGFR activity: Ba/F3 cell viability (CellTiter-Glo, 72 h), EGFR exon 20 NPG insertion; settings: EGFR exon 20 NPG Ins D770_N771, cell viability, read-out: BaF3 NPG IC50
T3 construct: expressed in transfected cells; host or cells: Ba/F3 (murine pro-B cells), retroviral transduction, puromycin selection, IL3-independent pool

[3] = biological target: T4, Ba/F3 cells with EGFR exon 20 ASV Ins V769_D770 (Homo sapiens, UniProt P00533, INS769ASV); assay: EGFR activity: Ba/F3 cell viability (CellTiter-Glo, 72 h), EGFR exon 20 ASV insertion; settings: EGFR exon 20 ASV Ins V769_D770, cell viability, read-out: BaF3 ASV IC50
T4 construct: expressed in transfected cells; host or cells: Ba/F3 (murine pro-B cells), retroviral transduction, puromycin selection, IL3-independent pool

[4] = biological target: T5, pEGFR in Ba/F3 cells expressing EGFR exon 20 NPG Ins D770_N771 (Homo sapiens, UniProt P00533, INS770NPG); assay: Inhibitor activity on EGFR phosphorylation (pEGFR AlphaLISA, 2 h), Ba/F3 EGFR exon 20 NPG insertion; settings: Ba/F3 EGFR exon 20 NPG Ins D770_N771
T5 construct: expressed in transfected cells; host or cells: Ba/F3 (murine pro-B cells), retroviral transduction, puromycin selection, IL3-independent pool

Ba/F3 cells with EGFR WT = biological target: T6, Ba/F3 cells with EGFR WT (Homo sapiens, UniProt P00533); assay: EGFR activity: Ba/F3 cell viability (CellTiter-Glo, 72 h), EGFR WT; settings: read-out: BaF3 WT IC50
T6 construct: expressed in transfected cells; host or cells: Ba/F3 (murine pro-B cells), retroviral transduction, puromycin selection, maintained with EGF

Measured: pIC50

T6 sequence (P00533 25-1210): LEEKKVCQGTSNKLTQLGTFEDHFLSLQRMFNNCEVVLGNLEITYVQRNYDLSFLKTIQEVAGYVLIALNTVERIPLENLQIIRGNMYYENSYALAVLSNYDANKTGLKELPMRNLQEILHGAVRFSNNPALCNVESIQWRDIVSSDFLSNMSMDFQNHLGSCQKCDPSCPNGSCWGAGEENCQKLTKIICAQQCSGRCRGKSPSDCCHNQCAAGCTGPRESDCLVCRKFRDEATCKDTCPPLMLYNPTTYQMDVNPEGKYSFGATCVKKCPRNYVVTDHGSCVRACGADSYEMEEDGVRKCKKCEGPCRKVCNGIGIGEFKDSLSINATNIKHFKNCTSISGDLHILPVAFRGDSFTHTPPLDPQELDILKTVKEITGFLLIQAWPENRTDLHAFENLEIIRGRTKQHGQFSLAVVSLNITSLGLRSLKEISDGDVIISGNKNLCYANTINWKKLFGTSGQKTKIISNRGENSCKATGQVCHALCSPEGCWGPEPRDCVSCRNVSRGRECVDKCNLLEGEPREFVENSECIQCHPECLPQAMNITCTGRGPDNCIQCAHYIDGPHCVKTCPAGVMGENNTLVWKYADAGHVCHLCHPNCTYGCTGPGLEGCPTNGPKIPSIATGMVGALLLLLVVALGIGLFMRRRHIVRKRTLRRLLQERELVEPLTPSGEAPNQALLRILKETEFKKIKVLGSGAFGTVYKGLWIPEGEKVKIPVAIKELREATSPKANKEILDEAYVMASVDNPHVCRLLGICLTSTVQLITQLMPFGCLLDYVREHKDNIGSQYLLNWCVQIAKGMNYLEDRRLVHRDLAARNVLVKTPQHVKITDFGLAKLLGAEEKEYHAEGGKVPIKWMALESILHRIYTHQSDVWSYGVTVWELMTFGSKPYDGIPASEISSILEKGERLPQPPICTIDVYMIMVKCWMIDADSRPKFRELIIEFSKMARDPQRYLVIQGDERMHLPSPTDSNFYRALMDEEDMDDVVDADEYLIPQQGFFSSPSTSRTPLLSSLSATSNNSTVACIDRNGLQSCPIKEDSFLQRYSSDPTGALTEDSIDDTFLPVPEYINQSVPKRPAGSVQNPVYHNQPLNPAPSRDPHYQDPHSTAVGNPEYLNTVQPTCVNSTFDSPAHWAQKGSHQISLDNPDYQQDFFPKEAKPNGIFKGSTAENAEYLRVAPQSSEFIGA
T2 sequence (P00533 with tags, fused parts or gaps DUP767-769): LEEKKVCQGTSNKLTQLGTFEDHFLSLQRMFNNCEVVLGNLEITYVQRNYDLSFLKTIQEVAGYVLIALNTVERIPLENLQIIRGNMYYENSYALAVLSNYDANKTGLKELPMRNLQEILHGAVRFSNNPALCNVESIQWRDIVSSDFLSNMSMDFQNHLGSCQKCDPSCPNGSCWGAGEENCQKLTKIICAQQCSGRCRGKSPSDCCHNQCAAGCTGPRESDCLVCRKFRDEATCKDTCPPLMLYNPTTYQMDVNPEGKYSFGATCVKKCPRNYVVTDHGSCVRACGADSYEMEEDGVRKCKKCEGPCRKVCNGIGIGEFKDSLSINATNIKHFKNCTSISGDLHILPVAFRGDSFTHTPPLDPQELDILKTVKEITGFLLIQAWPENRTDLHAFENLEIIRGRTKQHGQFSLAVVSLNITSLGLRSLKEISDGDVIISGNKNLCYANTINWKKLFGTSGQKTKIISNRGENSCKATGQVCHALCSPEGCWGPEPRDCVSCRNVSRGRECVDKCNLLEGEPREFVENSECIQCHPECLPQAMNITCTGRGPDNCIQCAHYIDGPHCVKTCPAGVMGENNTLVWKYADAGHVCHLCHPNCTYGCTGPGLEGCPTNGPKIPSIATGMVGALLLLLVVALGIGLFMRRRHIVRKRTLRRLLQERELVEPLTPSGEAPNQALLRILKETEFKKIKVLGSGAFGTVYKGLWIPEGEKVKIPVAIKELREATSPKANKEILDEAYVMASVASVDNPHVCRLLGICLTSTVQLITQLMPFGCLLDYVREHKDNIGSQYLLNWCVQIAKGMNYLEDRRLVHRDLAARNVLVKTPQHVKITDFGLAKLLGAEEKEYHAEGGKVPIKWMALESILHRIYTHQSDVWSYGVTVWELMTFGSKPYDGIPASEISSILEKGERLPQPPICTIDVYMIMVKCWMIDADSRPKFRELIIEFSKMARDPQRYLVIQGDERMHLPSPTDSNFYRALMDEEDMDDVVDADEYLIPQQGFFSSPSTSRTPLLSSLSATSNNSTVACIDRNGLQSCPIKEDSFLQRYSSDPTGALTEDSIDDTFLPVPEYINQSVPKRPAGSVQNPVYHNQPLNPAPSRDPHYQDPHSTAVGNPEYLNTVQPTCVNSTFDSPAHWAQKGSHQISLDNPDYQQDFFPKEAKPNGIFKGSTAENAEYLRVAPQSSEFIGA
T4 sequence (P00533 with tags, fused parts or gaps INS769ASV): as the sequence (P00533 with tags, fused parts or gaps DUP767-769) above
T1 sequence (P00533 with tags, fused parts or gaps INS769ASV): as the sequence (P00533 with tags, fused parts or gaps DUP767-769) above

C=CC(=O)N1CC[C@@H]1COc1cnccc1-c1[nH]c2c(c1Nc1cccc(Cl)c1OC)C(=O)NCC2 [Compound 145a, (R)-2-(3-((1-acryloylazetidin-2-yl)methoxy)pyridin-4-yl)-3-((3-chloro-2-methoxyphenyl)amino)-1,5,6,7-tetrahydro-4H-pyrrolo[3,2-c]pyridin-4-one]
6.00 to 7.00: Ba/F3 cells with EGFR WT
> 7.00: all other assays above

C=CC(=O)N1CCC[C@H]1C#Cc1cnccc1-c1[nH]c2c(c1Nc1cccc(F)c1OC)C(=O)NCC2 [Compound 147a, (S)-2-(3-((1-acryloylpyrrolidin-2-yl)ethynyl)pyridin-4-yl)-3-((3-fluoro-2-methoxyphenyl)amino)-1,5,6,7-tetrahydro-4H-pyrrolo[3,2-c]pyridin-4-one]
> 7.00: all assays above

C=CC(=O)N1CCC[C@@H]1C#Cc1cnccc1-c1[nH]c2c(c1Nc1cccc(F)c1OC)C(=O)NCC2 [Compound 147b, (R)-2-(3-((1-acryloylpyrrolidin-2-yl)ethynyl)pyridin-4-yl)-3-((3-fluoro-2-methoxyphenyl)amino)-1,5,6,7-tetrahydro-4H-pyrrolo[3,2-c]pyridin-4-one]
6.00 to 7.00: Ba/F3 cells with EGFR WT
> 7.00: all other assays above

C=CC(=O)N1CCC[C@H]1COc1cnccc1-c1[nH]c2c(c1Nc1cccc(F)c1C)C(=O)NCC2 [Compound 467, 3-[(3-fluoro-2-methylphenyl)amino]-2-(3-[[(2S)-1-(prop-2-enoyl)pyrrolidin-2-yl]methoxy]pyridin-4-yl)-1H,5H,6H,7H-pyrrolo[3,2-c]pyridin-4-one]
> 7.00: all assays above

COc1c(Cl)cccc1Nc1c(-c2ccncc2C#CC2(C(F)F)CC2)[nH]c2c1C(=O)NCC2 [compound 546]
6.00 to 7.00: Ba/F3 cells with EGFR WT
> 7.00: all other assays above
